Results from publication PMC7835950 (Frontiers in Chemistry, 2021).
Like-named read-outs stand apart in the source and are kept apart here.

Columns and labels:
OGDH = target: T1, OGDH (Rattus norvegicus, UniProt Q5XI78); experiment: OADH reaction catalyzed by the enzyme preparation from rat liver, high [OA] (low-affinity OA sites); type: biochemical; settings: for Amax: low-affinity sites
T1 construct: the tissue fractions with the complexes enriched to a degree allowing for a robust detection of the enzymatic activities, have been used; from tissue; host or cells: rat liver
T1 sequence (Q5XI78 41-1023): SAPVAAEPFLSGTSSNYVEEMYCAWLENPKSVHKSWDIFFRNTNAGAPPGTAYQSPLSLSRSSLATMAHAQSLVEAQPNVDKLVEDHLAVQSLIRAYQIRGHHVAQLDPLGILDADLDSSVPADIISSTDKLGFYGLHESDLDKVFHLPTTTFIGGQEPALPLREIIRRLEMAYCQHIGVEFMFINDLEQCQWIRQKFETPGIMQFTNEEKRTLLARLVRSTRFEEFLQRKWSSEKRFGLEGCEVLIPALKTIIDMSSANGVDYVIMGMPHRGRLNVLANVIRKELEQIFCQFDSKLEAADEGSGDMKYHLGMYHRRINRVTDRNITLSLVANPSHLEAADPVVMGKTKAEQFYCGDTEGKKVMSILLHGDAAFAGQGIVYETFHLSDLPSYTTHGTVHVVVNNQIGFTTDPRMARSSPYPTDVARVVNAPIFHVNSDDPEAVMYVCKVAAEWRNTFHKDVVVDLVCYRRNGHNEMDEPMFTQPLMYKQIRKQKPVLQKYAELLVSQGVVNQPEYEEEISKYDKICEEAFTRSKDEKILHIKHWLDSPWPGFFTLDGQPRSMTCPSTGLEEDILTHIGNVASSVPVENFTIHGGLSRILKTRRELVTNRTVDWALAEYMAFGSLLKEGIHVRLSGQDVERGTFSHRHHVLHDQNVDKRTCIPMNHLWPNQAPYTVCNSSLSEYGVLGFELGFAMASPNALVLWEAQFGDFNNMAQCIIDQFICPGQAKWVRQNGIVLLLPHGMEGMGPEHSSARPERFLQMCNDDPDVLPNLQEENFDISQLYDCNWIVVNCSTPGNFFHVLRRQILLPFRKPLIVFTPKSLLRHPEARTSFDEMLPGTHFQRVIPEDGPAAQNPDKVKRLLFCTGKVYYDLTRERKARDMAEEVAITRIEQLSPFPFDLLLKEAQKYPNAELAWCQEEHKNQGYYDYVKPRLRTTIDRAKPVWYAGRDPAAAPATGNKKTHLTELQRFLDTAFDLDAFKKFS
Protocol: Enzymes catalyzing OGDH and OADH reactions were enriched from rat hearts and livers using polyethylene glycol precipitation, as previously described (Artiukhov et al., [2020]).
(§1) The enzyme activities were assayed in the medium (pH 7.0) containing 50 mM MOPS, 1 mM ThDP, 1 mM MgCl2, 1 mM CaCl2, 1 mM dithiothreitol 0.15 mM Coenzyme A, 0.25 mM NAD^+ and various concentrations of 2-oxo substrates (0–10 mM OG or OA) and their phosphonate analogs (0–5,000 μM SP, GP, or AP). Reactions were started by addition of the enzyme preparations to the assay media. The amount of enzyme preparations (0.074 mg protein for the preparation from liver and 0.023 mg protein for the preparation from heart) were chosen to induce the lowest reliably measured reaction rate (ΔA340 = 0.001/min) at 0.01 mM OA without the phosphonates.
Reaction rates were calculated from linear parts of the product accumulation curves (up to 10 min, dependent on the reaction rate), excluding the initial region, where mixing the reagents and solubilization of the preparation affected the optical density.
Non-linear regression was used to approximate the experimental dependences of the reaction rates on the OG or OA concentration according to the Michaelis-Menten equation ( a=Amax*[S]/Km+[S] ) or its sum ( a=Amax*[S]/Km+[S]+Amax,2*[S]/Km,2+[S] ). The former equation describes one type of the active sites. […] The assumption was based on the presence of the two enzymes, OGDH and OADH, in the employed preparations.
The kinetic data were also analyzed by linear regression, using the known methods of the linearization of the Michaelis-Menten equation in the Lineweaver-Burk ( 1/a=1/Amax(1+Km/[S]) ) and Eadie-Hofstee ( a=Amax−Kmv/[S] ) coordinates. Due to the several orders of magnitude difference in the values of Km,1 and Km,2, the linear regression required separate analysis of the dependencies in the intervals of the low and high concentrations of 2-oxoadipate. The Km and Amax values obtained in independent experiments using the non-linear and linear regression analyses of the experimental data, were averaged and presented as Mean ± Standard Error of Mean.
(§2) To determine the inhibition constants (Ki), the effective values of Kmeff and Amaxeff , calculated from the hyperbolic or linear approximations as described above, were plotted against the concentration of the inhibitors ([I]). The linear regression of the equation Kmeff/Amaxeff=Km/Amax(1+[I]/Ki) , (Cornish-Bowden, [1979]) was applied to find the Intercept (Km/Amax) and Slope (Km/(Amax*Ki)) of a dependence. The values of Ki were determined as the ratio of the corresponding Intercepts to the Slopes. In the two-site model, the Ki(1) and Ki(2) were calculated separately from the linear approximations of Km,1eff/Amax,1eff vs. [I] and Km,2eff/Amax,2eff vs. [I] dependences, respectively. The standard errors of Ki were determined from means and standard errors of the Intercepts and the Slopes, using the previously described formula for standard deviation of a fraction (Bunik et al., [1999]). The Ki values obtained from the non-linear and linear regression analyses of the experimental data were averaged and presented as Mean ± Standard Error of Mean.

OGDH and OADH = experiment: Mechanism of inhibition of the OGDH and OADH reactions (effective Km and Amax vs inhibitor concentration); type: biochemical, rat; settings: vs 2-oxo substrate; cardiac or hepatic preparations; inhibitor up to 200 μM
Protocol: as §1, §2

[1] = high [OA] 0.1–10 mM, Michaelis-Menten, read-out: Ki, MM
[2] = high [OA], Eadie-Hofstee, read-out: Ki, EH
[3] = high [OA], Lineweaver-Burk, read-out: Ki, LB
[4] = high [OA], average, read-out: Ki, Average

Compound | Amax (OGDH; [I] 2 µM) | Amax (OGDH; [I] 10 µM) | Amax (OGDH; [I] 50 µM) | Ki (OGDH; [1]) [nM] | Ki (OGDH; [2]) [nM] | Ki (OGDH; [3]) [nM] | Ki (OGDH; [4]) [nM] | primary mechanism of inhibition (OGDH and OADH) | Amax (OGDH; [I] 0.5 µM) | Amax (OGDH; [I] 200 µM)
O=C(O)CCCC(=O)P(=O)(O)O [GP, glutaryl phosphonate] | 0.0088 ± 0.0004 µmol/min per mg of protein | 0.0093 ± 0.0005 µmol/min per mg of protein | 0.0056 ± 0.0001 µmol/min per mg of protein | 1400 ± 200 | 1300 ± 300 | 1300 ± 300 | 1300 ± 200 | competitive inhibition |  | 
O=C(O)CCCCC(=O)P(=O)(O)O [AP, adipoyl phosphonate] | 0.0085 ± 0.0002 µmol/min per mg of protein | 0.0090 ± 0.0003 µmol/min per mg of protein | 0.0096 ± 0.0002 µmol/min per mg of protein | 50000 ± 2000 | 47000 ± 2000 | 46000 ± 2000 | 47000 ± 1000 | competitive inhibition | 0.0084 ± 0.0002 µmol/min per mg of protein | 0.0097 ± 0.0010 µmol/min per mg of protein
O=C(O)CCC(=O)P(=O)(O)O [SP, succinyl phosphonate] |  | 0.0080 ± 0.0004 µmol/min per mg of protein | 0.0074 ± 0.0002 µmol/min per mg of protein | 3700 ± 100 | 2500 ± 400 | 2100 ± 400 | 2800 ± 500 | competitive inhibition |  | 
